Measurements published in ChEMBL document CHEMBL5352435, “Recent two-year advances in anti-dengue small-molecule inhibitors” (Eur J Med Chem, 2022).
*1 amine or outer side, *2 acyl side, *3 side chain or, on linkers, in order; H or OH if unused. Where a SMILES comes first, the peptide text is derived from it. Bridges are numbered along the chain shown (N, C = ends). [ ]: non-standard residue; d: D form. The star is where a group is joined. hTyr(3S-OH,4S-OH,3'-OSO3H) = N[C@H](C(=O)O)[C@H](O)[C@@H](O)c1ccc(O)c(OS(=O)(=O)O)c1; Orn(4R-OH,5R-OH) = O=C([C@H](C[C@@H](O)[C@@H](O)N[*:3])N[*:1])[*:2]; Pro(3S-OH,4S-Me) = C[C@H]1CN[C@H](C(=O)O)[C@H]1O; X1 = CCCCCOc1ccc(-c2cc(-c3ccc(C(=O)*)cc3)no2)cc1; Gln(3R-OH) = NC(=O)C[C@@H](O)[C@H](N)C(=O)O; Hyp = O=C(O)[C@@H]1C[C@@H](O)CN1

How the values were obtained:
dengue virus type 2 [1] = experiment: Antiviral activity against DENV2 New Guinea C infected in golden hamster BHK-21 cells assessed as inhibition of plaque formation and measured after 22 hrs by crystal violet based plaque assay; assay type: functional, organism-based; conditions: BHK-21, 22 h
Genome polyprotein [2] = target: T1, Genome polyprotein (dengue virus type 2, UniProt P29990); experiment: Inhibition of DENV2 NS2B/NS3 protease using Boc-Gly-Arg-Arg-MCA as substrate preincubated for 10 mins followed by substrate addition and measured after 60 mins by fluorescence microplate reader assay
dengue virus type 2 [3] = experiment: Antiviral activity against DENV2 infected in African green monkey Vero cells assessed as inhibition of viral titer preincubated for 16 hrs followed by viral infection and measured after 36 hrs by focus-forming assay; assay type: functional, organism-based
dengue virus type 2 [4] = experiment: Antiviral activity against DENV2 New Guinea C expressing […] reporter plasmid infected in human Huh-7 cells assessed as inhibition of viral replication incubated for 48 hrs by nanoluciferase assay; assay type: functional, organism-based; conditions: Huh-7, 48 h
[5] = Cytotoxicity against human Huh-7 cells assessed as reduction in cell viability incubated for 48 hrs by AlamarBlue assay; assay type: toxicity, cell-based
dengue virus type 4 [6] = experiment: Antiviral activity against DENV4 infected in Huh-7 cells assessed as inhibition of virus induced cytopathic effect incubated for 72 hrs by Hoechst 33342 staining based immunofluorescence assay; assay type: functional, organism-based; conditions: Huh-7, 72 h
Nonstructural protein 3 = Nonstructural protein 3 (Zika virus, UniProt A0A024AXB9); experiment: Inhibition of recombinant ZIKV NS2B-NS3 protease using Bz-Nle-K-K-R-AMC as substrate incubated for 1 hr by fluorescence-based microplate reader assay
dengue virus type 2 [7] = experiment: Antiviral activity against DENV2 assessed as inhibition of viral replication; assay type: functional, organism-based
dengue virus type 2 [8] = experiment: Antiviral activity against DENV2 New Guinea C infected in monkey LLC-MK2 cells assessed as inhibition of plaque formation incubated for 72 hrs by plaque titration assay; assay type: functional, organism-based; conditions: LLC-MK2, 72 h
dengue virus type 1 = experiment: Antiviral activity against DENV1 assessed as inhibition of viral replication; assay type: functional, organism-based
dengue virus type 3 [9] = experiment: Antiviral activity against DENV3 assessed as inhibition of viral replication; assay type: functional, organism-based
dengue virus type 4 [10] = experiment: Antiviral activity against DENV4 assessed as inhibition of viral replication; assay type: functional, organism-based
dengue virus type 2 [11] = experiment: Antiviral activity against DENV2 infected in mouse assessed as survival rate at 30 mg/kg,po; assay type: functional
dengue virus type 2 [12] = experiment: Antiviral activity against DENV2 New Guinea C infected in Huh-7 cells assessed as inhibition of virus induced cytopathic effect incubated for 3 to 7 days by Neutral red assay; assay type: functional, organism-based
dengue virus type 3 [13] = experiment: Antiviral activity against DENV3 H87 assessed as reduction in viral RNA copy number preincubated for 1 hrs followed by infection in Vero cells and measured after 4 days by qRT-PCR analysis; assay type: functional, organism-based
dengue virus type 2 [14] = experiment: Antiviral activity against DENV2 New Guinea C infected in golden hamster BHK-21 cells assessed as inhibition of plaque formation incubated for 4 days by crystal violet staining based microscopy; assay type: functional, organism-based; conditions: BHK-21, 96 h
dengue virus type 2 [15] = experiment: Antiviral activity against DENV2 16681 infected in human Huh-7 cells assessed as inhibition of viral titer incubated for 24 hrs by focus-forming assay; assay type: functional, organism-based; conditions: Dengue virus, 16681, Huh-7, 24 h
[16] = Cytotoxicity against human Huh-7 cells assessed as reduction in cell viability incubated for 24 hrs by PrestoBlue assay; assay type: toxicity, cell-based
dengue virus type 2 [17] = experiment: Antiviral activity against DENV2 Thailand/16681/1984 infected in golden hamster BHK-21 cells assessed as inhibition of virus induced cytopathic effect incubated for 4 to 5 days by microscopy; assay type: functional, organism-based
Genome polyprotein [18] = target: T1, Genome polyprotein; experiment: Inhibition of DENV2 NS2B (48 to 100 residues)/NS3 (14 to 185 residues) protease expressed in Escherichia coli BL21 (DE3) using Bz-Nle-Lys-Arg-Arg-AMC as substrate preincubated for 30 mins followed by substrate addition by fluorescence assay

T1 sequence (P29990 1346-1475 limits assumed): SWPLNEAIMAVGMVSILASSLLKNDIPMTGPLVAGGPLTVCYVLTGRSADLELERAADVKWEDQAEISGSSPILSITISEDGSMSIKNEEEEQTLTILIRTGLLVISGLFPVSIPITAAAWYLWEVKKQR
T1 sequence (P29990 1476-2093 limits assumed): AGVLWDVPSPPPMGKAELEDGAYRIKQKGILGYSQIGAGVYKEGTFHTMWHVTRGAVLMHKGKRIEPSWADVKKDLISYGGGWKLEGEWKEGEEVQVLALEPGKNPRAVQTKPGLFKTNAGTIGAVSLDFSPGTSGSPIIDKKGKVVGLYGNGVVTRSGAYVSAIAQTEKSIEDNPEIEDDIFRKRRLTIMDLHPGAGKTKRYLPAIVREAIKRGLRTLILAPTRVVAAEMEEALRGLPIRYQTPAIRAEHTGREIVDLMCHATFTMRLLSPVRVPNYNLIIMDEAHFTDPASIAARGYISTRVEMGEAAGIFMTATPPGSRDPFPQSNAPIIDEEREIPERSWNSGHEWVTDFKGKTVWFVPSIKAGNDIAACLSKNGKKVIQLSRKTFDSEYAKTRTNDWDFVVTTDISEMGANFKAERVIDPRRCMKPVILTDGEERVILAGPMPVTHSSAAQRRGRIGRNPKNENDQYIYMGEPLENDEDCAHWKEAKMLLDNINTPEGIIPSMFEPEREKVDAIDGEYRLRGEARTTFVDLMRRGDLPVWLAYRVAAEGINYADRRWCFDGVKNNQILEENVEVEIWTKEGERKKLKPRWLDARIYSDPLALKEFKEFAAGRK
Nonstructural protein 3, sequence (A0A024AXB9 whole entry): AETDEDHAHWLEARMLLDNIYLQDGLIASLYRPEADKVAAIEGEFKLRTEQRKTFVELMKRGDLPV

With COc1cc(/C=C(\C#N)C(=O)c2ccc(O)c(O)c2)cc(I)c1O the EC50 (dengue virus type 2 [1]) was 3 µM.

In the case of O=C(CCCCCCCCc1ccc(O)cc1)c1c(O)cc(O)cc1O, the IC50 (Genome polyprotein [2]) is reported as 7.55 µM.

Cc1ccc(O)c(NC(=O)CCc2ccccc2)c1 gave an IC50 (dengue virus type 2 [3]) of 1 µM.

In the case of Fc1cc2cn[nH]c2cc1Nc1ccnc2ccc(Br)cc12, the EC50 (dengue virus type 2 [4]) is reported as 2.3 µM and the CC50 at 48 h [5] is reported as over 10 µM.

O=[N+]([O-])c1ccc(Nc2ccc3[nH]ncc3c2)nc1N1CCNCC1 showed an IC50 (dengue virus type 4 [6]) of 7.1 µM and an IC50 (Nonstructural protein 3) of 1.5 µM.

In the case of CC(C)(C)[Si](C)(C)Oc1ccc([C@H]2N(Nc3ccc([N+](=O)[O-])cc3)C(=O)[C@@H]3Cc4ccccc4N32)cc1, the EC50 (dengue virus type 2 [7]) is reported as 4.79 µM.

For C#COc1ccc(-c2cc(=O)c3c(O)cc(O)cc3o2)cc1, the EC50 (dengue virus type 2 [8]) was 7.81 µM.

With COc1cc(NC(C(=O)N2CCc3ccc(OC(F)(F)F)cc32)c2ccc(Cl)cc2)cc(OCCCC(=O)O)c1 (stereo not given) the EC50 (dengue virus type 1) was at most 0.001 µM, the EC50 (dengue virus type 2 [7]) was at most 0.004 µM and the EC50 (dengue virus type 3 [9]) was at most 0.001 µM. It also gave an EC50 (dengue virus type 4 [10]) of at most 0.006 µM and an Activity (dengue virus type 2 [11]) of 90%.

For CC1(C)Cc2sc(NC(=O)Cc3ccc(S(N)(=O)=O)cc3)c(C#N)c2CN1CC1CCCCC1, the EC50 (dengue virus type 2 [12]) was 0.023 µM.

O=C1NCc2ccc(Nc3ccnc4ccc(Br)cc34)cc21 gave an EC50 (dengue virus type 2 [4]) of 3.6 µM and a CC50 at 48 h [5] of over 10 µM.

With O=c1cc(-c2ccccc2)oc2cc(O)c(O)c(O)c12 [BAICALEIN] the IC50 (dengue virus type 3 [13]) was 17.2 µM.

With Cc1cc2c(F)c(Oc3ncnn4cc(OC[C@@H](C)O)c(C)c34)ccc2[nH]1 [BRIVANIB] the IC50 (dengue virus type 2 [14]) was 2.5 µM.

In the case of COc1ccc2[nH]cc(CCNC(C)=O)c2c1 [MELATONIN], the IC50 (dengue virus type 2 [15]) is reported as 135 µM and the CC50 at 24 h [16] is reported as 3170 µM.

CCCCCOc1ccc(-c2cc(-c3ccc(C(=O)N[C@H]4C[C@@H](O)[C@@H](O)NC(=O)[C@@H]5[C@@H](O)[C@@H](C)CN5C(=O)[C@H]([C@H](O)CC(N)=O)NC(=O)[C@H]([C@H](O)[C@@H](O)c5ccc(O)c(OS(=O)(=O)O)c5)NC(=O)[C@@H]5C[C@@H](O)CN5C(=O)[C@H]([C@@H](C)O)NC4=O)cc3)no2)cc1 [MICAFUNGIN] (X1-[Orn(4R-OH,5R-OH)]T[Hyp][hTyr(3S-OH,4S-OH,3'-OSO3H)][Gln(3R-OH)][Pro(3S-OH,4S-Me)]; lactam 1-C) showed an IC50 (dengue virus type 2 [17]) of 10.2 µM.

O=c1c(O)c(-c2cc(O)c(O)c(O)c2)oc2cc(O)cc(O)c12 [MYRICETIN] gave an IC50 (Genome polyprotein [18]) of 8.46 µM.

For COc1cc([C@H]2Oc3cc([C@H]4Oc5cc(O)cc(O)c5C(=O)[C@@H]4O)ccc3O[C@@H]2CO)ccc1O [SILYBIN A], the IC50 (dengue virus type 3 [13]) was 18.5 µM.

With Cc1ccc(C(=O)Nc2ccc(S(=O)(=O)O)c3cc(S(=O)(=O)O)cc(S(=O)(=O)O)c23)cc1NC(=O)c1cccc(NC(=O)Nc2cccc(C(=O)Nc3cc(C(=O)Nc4ccc(S(=O)(=O)O)c5cc(S(=O)(=O)O)cc(S(=O)(=O)O)c45)ccc3C)c2)c1 [SURAMIN HEXASODIUM] the EC50 (dengue virus type 2 [1]) was 0.35 µM.
